Where two headings read alike, the source gives them in different places.
Experiments:
[1] = Caco-2 Permeability Assay; assay type: in vitro ADME; conditions: human
Method: Preparation of Caco-2 Cells: 50 μL and 25 mL of cell culture medium were added to each well of the Transwell insert and reservoir, respectively. The HTS transwell plates were incubated at 37° C., 5% CO2 for 1 hour before cell seeding. Caco-2 cells were diluted to 6.86×10^5 cells/mL with culture medium and 50 μL of cell suspension were dispensed into the filter well of the 96-well HTS Transwell plate. Cells were cultivated for 14-18 days in a cell culture incubator at 37° C., 5% CO2, 95% relative humidity. Cell culture medium was replaced every other day, beginning no later than 24 hours after initial plating.
Assessment of Cell Monolayer Integrity: Medium was removed from the reservoir and each Transwell insert and replaced with prewarmed fresh culture medium. Transepithelial electrical resistance (TEER) across the monolayer was measured using Millicell Epithelial Volt-Ohm measuring system (Millipore, USA). The Plate was returned to the incubator once the measurement was done. The TEER value was calculated according to the following equation:
TEER measurement(ohms)×Area of membrane(cm^2)=TEER value(ohm·cm^2)
TEER value should be greater than 230 ohm·cm^2, which indicates the well-qualified Caco-2 monolayer.
Preparation of Solutions: 2 mM stock solutions in DMSO of control compounds were prepared and diluted with HBSS (10 mM HEPES, pH 7.4) to get 10 μM working solution. 0.2 mM stock solutions of test compounds in DMSO were prepared and diluted with HBSS (10 mM HEPES, pH 7.4 with 0.5% BSA) to get 1 μM working solution. Metoprolol, erythromycin and cimetidine were used as control compounds.
Performing the Drug Transport Assay: The Caco-2 plate was removed from the incubator. The monolayer was washed twice with pre-warmed HBSS (10 mM HEPES, pH 7.4). The plate was incubated at 37° C. for 30 minutes. To determine the rate of drug transport in the apical to basolateral direction, 125 μL of the working solution was added to the Transwell insert (apical compartment). A 50 μL sample was transferred immediately from the apical compartment to 200 μL of acetonitrile containing IS (100 nM alprazolam, 200 nM Caffeine and 100 nM tolbutamide) in a new 96-well plate as the initial donor sample (A-B) and it was vortexed at 1000 rpm for 10 minutes. The wells in the receiver plate (basolateral compartment) were filled with 235 μL of transport buffer. To determine the rate of drug transport in the basolateral to apical direction, 285 μL of the working solution were added to the receiver plate wells (basolateral compartment). A 50 μL sample was transferred immediately from the basolateral compartment to 200 μL of acetonitrile containing IS (100 nM alprazolam, 200 nM Caffeine and 100 nM tolbutamide) in a new 96-well plate as the initial donor sample (B-A) and it was vortexed at 1000 rpm for 10 minutes. The Transwell insert (apical compartment) was filled with 75 μL of transport buffer. The apical to basolateral direction and the basolateral to apical direction need to be done at the same time. The plates were incubated at 37° C. for 2 hours. At the end of the incubation, 50 μL samples from donor sides (apical compartment for Ap→B1 flux, and basolateral compartment for B1→Ap) and receiver sides (basolateral compartment for Ap→B1 flux, and apical compartment for B1→Ap) were transferred to wells of a new 96-well plate, followed by the addition of 4 volume of acetonitrile containing IS (100 nM alprazolam, 200 nM Caffeine and 100 nM tolbutamide). Samples were vortexed for 10 minutes, 50 μL samples were transferred to wells of a new 96-well plate, followed by the addition of 50 μL Hepes and 200 μL IS. A11 samples were vortexed for 10 minutes, and then centrifuged at 3,220 g for 40 minutes. An aliquot of 150 μL of the supernatant was mixed with an appropriate volume of ultra-pure water before LC-MS/MS analysis.
Data analysis: All calculations were carried out using Microsoft Excel. Peak areas were determined from extracted ion chromatograms. […]

[2] = Hepatocyte Stability Assay, mouse; as to all read-outs here: tested at 1 µM; assay type: in vitro ADME; conditions: for Mouse hepatocyte clearance: mouse hepatocytes; for Suspension mou. heps Clint (% Qh): suspension mouse hepatocytes
Method: Example 7: Hepatocyte Stability Assay
• Preparation of working solutions: 10 mM stock solutions of test compound and positive control were prepared in DMSO. In separate conical tubes, the 10 mM solution of test compound and the positive control were diluted to 100 μM by combining 198 μL of 50% acetonitrile/50% water and 2 μL of 10 mM stock.
Data Analysis: All calculations were carried out using Microsoft Excel. Peak areas were determined from extracted ion chromatograms. In vitro half-life (t1/2) of parent compound was determined by regression analysis of the percent parent disappearance vs. time curve.
The in vitro half-life (in vitro t1/2) was determined from the slope value:
Conversion of the in vitro t1/2 (in min) into the in vitro intrinsic clearance (in vitro CLint, in μL/min/1×10^6 cells) was done using the following equation (mean of duplicate determinations):
V=incubation volume(0.2 mL);
N=number of hepatocytes per well(0.1×10^6 cells).

[3] = Caco-2, pH 7.4, +0.5% BSA, read-out: Caco 2 apparent permeability Papp (A−B)
[4] = Caco-2, pH 7.4, +0.5% BSA, read-out: Caco 2 apparent permeability Papp (B−A)
[5] = Caco-2, pH 7.4, apical to basolateral, read-out: Caco2 Papp (AB)
[6] = Caco-2, pH 7.4, basolateral to apical, read-out: Caco2 Papp (BA)

Papp A→B at 2 h, 1 μM [1, 5] [×10⁻⁶ cm/s]	Papp B→A at 2 h, 1 μM [1, 6] [×10⁻⁶ cm/s]	Structure (SMILES)	Papp A→B at 2 h, 1 μM [1, 3] [×10⁻⁶ cm/s]	Papp B→A at 2 h, 1 μM [1, 4] [×10⁻⁶ cm/s]	Mouse hepatocyte clearance [2]	Suspension mou. heps Clint (% Qh) [2] [% Qh]
2 to 10	< 2	Cn1cc(-c2nc(-c3ccc(C(F)(F)F)cn3)cc3c(=O)n(CC(C)(C)O)cnc23)cn1 [Compound 103, 3-(2-hydroxy-2-methylpropyl)-8-(1-methyl-1H-pyrazol-4-yl)-6-(5-(trifluoromethyl)pyridin-2-yl)pyrido[3,4-d]pyrimidin-4(3H)-one]	–	–	–	–
2 to 10	2 to 10	CC(C)(O)Cn1cnc2c(-c3cccnc3)nc(-c3ccc(C(F)(F)F)cc3)cc2c1=O [Compound 16]	–	–	++ (“++” indicates a CLint between 20 and 50 mL/min/Kg)	–
–	–	C[C@@H](CO)n1cnc2c(-c3cnsc3)nc(-c3ccc(Cl)cc3)cc2c1=O [Compound 58]	–	–	++ (“++” indicates a CLint between 20 and 50 mL/min/Kg)	–
2 to 10	2 to 10	C[C@@H](CO)n1cnc2c(-n3ccnc3)nc(-c3ccc(OC(F)(F)F)cc3)cc2c1=O [Compound 44, (S)-3-(1-hydroxypropan-2-yl)-8-(1H-imidazol-1-yl)-6-(4-(trifluoromethoxy)-phenyl)pyrido[3,4-d]pyrimidin-4(3H)-one]	–	–	–	–
2 to 10	> 10	C[C@@H](CO)n1cnc2c(-c3cccnc3)nc(-c3ccc(C(F)(F)F)nc3)cc2c1=O [Compound 12]	–	–	++ (“++” indicates a CLint between 20 and 50 mL/min/Kg)	–
2 to 10	2 to 10	C[C@@H](n1cnc2c(-c3cccnc3)nc(-c3ccc(Cl)cc3)cc2c1=O)C(C)(C)O [Compound 33]	–	–	–	–
–	–	O=c1c2cc(-c3ccc(Cl)cc3)nc(-c3cccnc3)c2ncn1C[C@H](O)C(F)(F)F (single isomer, unassigned) [185 enantiomer 2]	–	–	+ (“+” indicates an CLint above 50 mL/min/Kg)	–
2 to 10	< 2	C[C@@H](CO)n1cnc2c(-c3cncc(F)c3)nc(-c3ccc(OC(F)(F)F)cc3)cc2c1=O [Compound 1, (S)-8-(5-fluoropyridin-3-yl)-3-(1-hydroxypropan-2-yl)-6-(4-(trifluoromethoxy)phenyl)pyrido[3,4-d]pyrimidin-4(3H)-one]	–	–	–	–
2 to 10	< 2	Cn1cc(-c2nc(-c3ccc(Cl)cc3)cc3c(=O)n(CC(C)(C)O)cnc23)cn1 [Compound 21]	–	–	++ (“++” indicates a CLint between 20 and 50 mL/min/Kg)	–
< 2	< 2	C[C@@H](CO)n1cnc2c(-c3cccc(F)c3)nc(-c3ccc(C(F)(F)F)cn3)cc2c1=O [Compound 47, (S)-8-(3-fluorophenyl)-3-(1-hydroxypropan-2-yl)-6-(5-(trifluoromethyl)pyridin-2-yl)pyrido[3,4-d]pyrimidin-4(3H)-one]	–	–	–	–
> 10	2 to 10	Cn1cc(-c2nc(-c3ccc(C(F)(F)F)nc3)cc3c(=O)n(CC(C)(C)O)cnc23)cn1 [Compound 60]	–	–	++ (“++” indicates a CLint between 20 and 50 mL/min/Kg)	–
2 to 10	2 to 10	C[C@@H](CO)n1cnc2c(-c3cccc(F)c3)nc(-c3ccc(C(F)(F)F)nc3)cc2c1=O [Compound 8]	–	–	–	–
2 to 10	2 to 10	CC(C)(O)Cn1cnc2c(-c3cccnc3)nc(-c3ccc(Cl)cc3)cc2c1=O [Compound 18]	–	–	+ (“+” indicates an CLint above 50 mL/min/Kg)	–
–	–	O=c1c2cc(-c3ccc(Cl)cc3)nc(-c3cccnc3)c2ncn1C[C@@H](O)C(F)(F)F (single isomer, unassigned) [185 enantiomer 1]	–	–	+ (“+” indicates an CLint above 50 mL/min/Kg)	–
2 to 10	< 2	C[C@@H](n1cnc2c(-c3cnn(C)c3)nc(-c3ccc(Cl)cc3)cc2c1=O)C(C)(C)O [Compound 31]	–	–	–	–
2 to 10	< 2	C[C@@H](CO)n1cnc2c(-c3cnn(C)c3)nc(-c3ccc(Cl)cc3)cc2c1=O [Compound 27]	–	–	–	–
> 10	2 to 10	Cc1ccc(-c2cc3c(=O)n([C@@H](C)CO)cnc3c(-c3cccnc3)n2)cc1 [Compound 17, (S)-3-(1-hydroxypropan-2-yl)-8-(pyridin-3-yl)-6-(p-tolyl)pyrido[3,4-d]pyrimidin-4(3H)-one]	–	–	+ (“+” indicates an CLint above 50 mL/min/Kg)	–
> 10	2 to 10	CC(C)(O)Cn1cnc2c(-c3cccnc3)nc(-c3ccc(C(F)(F)F)cn3)cc2c1=O [Compound 105]	–	–	++ (“++” indicates a CLint between 20 and 50 mL/min/Kg)	–
2 to 10	> 10	C[C@H](n1cnc2c(-c3cccnc3)nc(-c3cccnc3)cc2c1=O)C(C)(C)O [Compound 34]	–	–	–	–
2 to 10	2 to 10	C[C@@H](CO)n1cnc2c(-c3cccnc3)nc(-c3ccc(OC(F)(F)F)cc3)cc2c1=O [Compound 22]	–	–	++ (“++” indicates a CLint between 20 and 50 mL/min/Kg)	–
2 to 10	> 10	C[C@@H](CO)n1cnc2c(-c3cccnc3)nc(-c3ccc(C4CC4)nc3)cc2c1=O [Compound 74]	–	–	+ (“+” indicates an CLint above 50 mL/min/Kg)	–

Structure (SMILES)	Papp A→B at 2 h, 1 μM [1, 5] [×10⁻⁶ cm/s]	Papp B→A at 2 h, 1 μM [1, 6] [×10⁻⁶ cm/s]	Papp A→B at 2 h, 1 μM [1, 3] [×10⁻⁶ cm/s]	Papp B→A at 2 h, 1 μM [1, 4] [×10⁻⁶ cm/s]	Mouse hepatocyte clearance [2]	Suspension mou. heps Clint (% Qh) [2] [% Qh]
C[C@@H](CO)n1cnc2c(-c3cccnc3)nc(-c3ccc(C(F)(F)F)cn3)cc2c1=O [Compound 46, (S)-3-(1-hydroxypropan-2-yl)-8-(pyridin-3-yl)-6-(5-(trifluoromethyl)pyridin-2-yl)pyrido[3,4-d]pyrimidin-4(3H)-one]	> 10	> 10	12.6	16.4	++ (“++” indicates a CLint between 20 and 50 mL/min/Kg)	< 33
C[C@H](n1cnc2c(-c3cnn(C)c3)nc(-c3ccc(Cl)cc3)cc2c1=O)C(C)(C)O [Compound 30]	2 to 10	< 2	–	–	++ (“++” indicates a CLint between 20 and 50 mL/min/Kg)	–
CC(C)(O)Cn1cnc2c(-c3cccnc3)nc(-c3ccc(C(F)(F)F)nc3)cc2c1=O [Compound 9]	2 to 10	> 10	9.6	25	–	< 33
C[C@@H](CO)n1cnc2c(-c3cccc(F)c3)nc(-c3ccc(Cl)cc3)cc2c1=O [Compound 7]	< 2	< 2	–	–	++ (“++” indicates a CLint between 20 and 50 mL/min/Kg)	–

Reference: US20230295152A1 (SENDA BIOSCIENCES, INC., priority 2019, published 2023)
